Assay results reported in the METLIN SMRT retention time set (Domingo-Almenara et al. 2019).

Assay: gradient 5% acetonitrile 3 min, to 50% in 2 min, to 85% in 15 min, held 3 min, 100 µL/min
Conditions: column: Zorbax Extend-C18 2.1 x 50 mm; eluents: water / acetonitrile, 0.1% formic acid
In short: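 Each retention time is based on an adduct peak selected computationally and verified by manual inspection. Measurements used HPLC–quadrupole time-of-flight mass spectrometry in positive and negative ionization mode on mixtures of ~100 pure standards. Chromatography ran on a Zorbax Extend-C18 column (2.1 × 50 mm, 1.8 μm) at 100 μL/min with water and acetonitrile, each containing 0.1% formic acid, and dead and dwell volumes of 40 μL and 900 μL.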

SMILES	RP-LC retention time [s]
O=C(C1CCCN(c2nnc(N3CCCC3=O)s2)C1)N1CCN(c2ccccn2)CC1 (stereo not given)	582
Cc1cccc(Cn2c(C)c(CNCc3ccco3)c(C(=O)O)c2C)c1	697
CCOc1nc2ccccc2nc1N1CCCC(C(=O)Nc2ccc(Cl)cc2C)C1 (stereo not given)	1300
O=C(Cn1cccc1-c1nc(-c2ccc3c(c2)OCO3)no1)N1CCN(c2ccccc2)CC1	1070
COc1cccc(CNC(=O)C2(C)CCCN(C(=O)Nc3ccccc3C)C2)c1 (stereo not given)	895
O=C(NC(c1ccccc1)c1nnc(N2CCOCC2)o1)c1cccc(Cl)c1 (stereo not given)	796
Cc1c(-c2noc(-c3ccc(N(C)C)cc3)n2)nnn1-c1ccc(F)cc1	1040
COC(=O)c1c(C)[nH]c(C(=O)N2CCC(CC(=O)NCc3cccc(OC)c3)CC2)c1C	715
Cc1cc(C)n(CCC(=O)NCC23CCCC=C2NC(=O)CC3)n1 (stereo not given)	621
COc1ccc2c(c1)C1(CCN(C(=O)C(C)C)C1)C(=O)N2C (stereo not given)	701
CCc1cc(C2CCCN2C(=O)Cc2ccccc2F)on1 (stereo not given)	777
COc1cc(NC(=O)CN2CCSc3ccccc32)cc(OC)c1OC	890
c1ccc(-c2nnc(Cc3nc(-c4ccc5c(c4)OCO5)no3)o2)cc1	957
COc1ccc(Cl)cc1C(=O)N1CCC(C(=O)Nc2nccs2)CC1	697
Cc1nc2cc3c(cc2n1CC(=O)NCc1ccc2c(c1)OCCCO2)OCCO3	615
CCc1cccc(Nc2c(-c3nc(C)no3)cnc3nc(C)ccc23)c1	835
COc1ccc(NC(=O)c2cc3c(=O)n(CC(C)C)c4ccccc4n3n2)c(OC)c1	1180
CCN1CCCn2cc(S(=O)(=O)N3CCCCCC3)cc2C1=O	747
CC(C)Sc1ccc(CC(=O)NCC2CCN(C(=O)NC(C)(C)C)CC2)cc1	828
CN(C)C(=O)C1CCN(S(=O)(=O)Cc2ccc(Cl)cc2)CC1	746
COc1ccc2c(c1)CCc1sc(NC(=O)c3ccc(C)cc3)nc1-2	1150
CCCNc1cc(N2CCC(CCC(=O)NCc3cccs3)CC2)ncn1	661
O=C(NCc1cc(F)ccc1F)C1CCN(c2cncnc2N2CCCCC2)CC1	709

SMILES	RP-LC retention time [s]
COc1ccc(NC(=O)N2CC(C)Oc3ccc(C)cc32)cc1 (stereo not given)	945
Cc1ccc(-c2nc3ncccn3c2NC(=O)c2cccc(C(F)(F)F)c2)cc1	838
Cc1ccccc1-c1nc(-c2ccc3nncn3c2)no1	872
Cc1ccc(-n2nc3c(=O)n(CCCC(=O)NCC4CCCO4)nc(C)c3c2C)cc1 (stereo not given)	731
COCCCNC(=O)c1ccc2c(c1)CCCN2S(C)(=O)=O	667
Cc1cc2c(N3CCCC(C(=O)NCc4ccc(Br)cc4)C3)nccc2s1 (stereo not given)	702
CNc1nc(NCc2ccc(NC(=O)c3ccc(F)cc3)cc2)c2ccccc2n1	692
CC(C)CN1CCCCc2cc(C(N)=O)sc21	829
Cc1cc(Cl)ccc1NC(=O)Cc1nnc(-c2ccc3ncccc3c2)o1	766
Cc1ccccc1CNC(=O)C1(C)CCCN(C(=O)Nc2ccc(F)cc2)C1 (stereo not given)	899
COC(=O)c1cc(C2CC2)nc2c1c(=O)n(Cc1ccccc1)c(=O)n2C	1030
CCc1ccc(S(=O)(=O)c2cnc(N3CCN(c4ccccc4)CC3)nc2N)cc1	1140
Cc1sc(-c2noc(C(C)C)n2)cc1S(=O)(=O)N1CCC(C(=O)N2CCOCC2)CC1	909
COc1ccc(OC)c(CNC(=O)c2cn3c(n2)CCCC3)c1	587
CS(=O)(=O)N1CCC(C(=O)NCCc2csc(-c3cccs3)n2)CC1	695
COc1ccc(-n2c(=O)c(C(=O)NC(C)c3ccccc3)c(O)c3cccnc32)cc1 (stereo not given)	1180
Cc1cc(-c2nnc(-c3ccccc3)o2)c(C)n1CC(=O)Nc1ccc(F)cc1	938
Cc1noc(-c2nc(-c3cccc(C(F)(F)F)c3)no2)n1	1080
O=C(NCc1cccs1)C1CCN(c2cc(-n3ccnc3)ncn2)CC1	564
CCc1ccc(NC(=O)c2ccc(=O)n(CCN3CCOCC3)c2)cc1	637
Oc1ccc(-c2ccc(F)cc2)cc1CN1CCCCCC1	694
Cc1ccc(NC(=O)Cn2c(=O)nc(N3CCC(C)CC3)c3ccccc32)cc1C	909
Cc1cc2c(cc1S(=O)(=O)N1CCCC1C(=O)NCc1ccc(Cl)cc1)OCC(=O)N2 (stereo not given)	806

SMILES	RP-LC retention time [s]
CCc1nc2cc(N3CCC(C(=O)NCc4cccc(F)c4)CC3)cnc2nc1CC	840
Cc1ccc(CNC(=O)CCCN2C(=O)CCn3nc(-c4cn(C)c5ccccc45)cc32)o1	815
CCN(CC)CCCNC(=O)C1CCCN(c2ncc(-c3ccccc3)cn2)C1 (stereo not given)	673
CCCCc1ccc(NC(=O)N2CCc3nc[nH]c3C2)cc1	675
Cc1ccc2nc(-c3ccc(C)c(NC(=O)c4cccs4)c3)[nH]c2c1	681
O=C(Nc1ccc(C(F)(F)F)cc1)NC1CCN(c2ccccc2)C1=O (stereo not given)	912
O=C(Cn1ncc2c(N3CCN(c4ccccn4)CC3)ncnc21)Nc1ccc(F)c(F)c1	572
Cc1noc(-c2ccc(-n3ncc(C(=O)NC4CCCCC4)c3C)nc2)n1	737
Cc1cc2nn(CC(=O)Nc3ccc(C)c(C)c3)c(=O)n2c(-c2ccccc2)n1	868
CCC(=O)N1CCCCCNC(=O)[C@@H]2CCC[C@@H]21	621
O=C(Nc1nnc(C2=COCCO2)o1)C1CCN(S(=O)(=O)c2cccs2)CC1	643
O=C(c1nc(-c2ccnc(N3CCCC3)c2)no1)N1CCC2(CC1)OCCO2	617
COCCc1noc(C2Cc3ccccc3N2C(=O)NCc2cccc(OC)c2)n1 (stereo not given)	618
Nc1ncnc2c1ncn2C1CCCO1 (stereo not given)	580
O=C(NCCCN1CCCC1=O)c1cc2c(s1)CCN(C(=O)c1ccc(F)cc1)C2	670
CCOC(=O)C1CCN(C(=O)Cn2c(=O)c3nnc(C)n3c3ncccc32)CC1	780
O=C(NCCCN1CCOCC1)C1CCc2sc(C(=O)N3CCOCC3)cc2C1 (stereo not given)	568
CCCN(C)C(=O)c1ccc2c(c1)Sc1ncccc1C(=O)N2C(C)C	760
CC(C)(C)C(=O)N1CCC(C(=O)Nc2cccc(Br)c2)CC1	855
O=C(Cc1cccs1)NCc1cccnc1Oc1ccccc1	853
CCOc1ccc(-n2ccn3cc(-c4ccc(Br)cc4)nc3c2=O)cc1	954
COCCN1CN=C(Nc2nc(C)c3cccc(C)c3n2)NC1	644
CCn1c(=O)sc2cc(S(=O)(=O)N3CCC(C(=O)Nc4cccc5c4CCCC5)CC3)ccc21	1010

SMILES	RP-LC retention time [s]
CCCN1CCN(c2ncc3c(n2)CCN(Cc2ccccc2OCC)C3)CC1	565
COc1ccc(CCNC(=O)c2ccc3c(c2)NC(=O)C2CCCCN32)cc1OC (stereo not given)	731
COc1ccccc1C(=O)Nc1ccc2nc(N3CCN(CC(=O)N(C)C)CC3)cc(C(=O)O)c2c1	579
O=C(Nc1nc2c(s1)CCCC2)c1cccc(C(F)(F)F)c1	1030
Cc1cc(N2CCN(C(=O)Nc3ccc(F)c(Cl)c3)CC2)nc(N2CCCC2)n1	701
O=S(=O)(Cc1ccccc1)N1CCC2(CCCCO2)CC1	868
O=C(c1ccc2c(c1)CCC(=O)N2Cc1ccccc1)N1CCN(c2ccccc2F)CC1	967
Cc1ccc(-n2ncc3c(=O)n(Cc4nc(-c5cccc(C(F)(F)F)c5)no4)cnc32)cc1	1180
CCCNC(=O)c1nc(C)n(C2CCN(S(C)(=O)=O)CC2)c1C	542
CC(C)c1noc(-c2ccn3c(CC(=O)N4CCc5ccccc5C4)nnc3c2)n1	822
Cc1ccc(NC(=O)Cn2c(C)nc3onc(C)c3c2=O)cc1F	735
CCc1nc2c(c(=O)n1CC(=O)NCc1ccc(C)cc1)CN(Cc1ccccc1)CC2	661
CCN(CC)c1nc2cc(C(=O)OC)ccc2c(=O)n1-c1cc(OC)cc(OC)c1	1090
Cc1[nH]c(C(=O)N2CCCC(C(=O)NCC3CCCO3)C2)c(C)c1C(=O)OC(C)C (stereo not given)	701
COc1cc(CN2CCC[C@H]2c2nc(C3CCOCC3)n[nH]2)cc(OC)c1	593
CC(C)NC(=O)N1CCN(c2nc3ccccc3n(Cc3ccccc3)c2=O)CC1	912
Cc1ccc(NS(=O)(=O)c2ccc(-c3c(C)noc3C)cc2)cc1Cl	1040
CCCc1cc(N2CCN(C(=O)c3ccc4c(c3)OCO4)CC2)nc2nnc(C)n12	624
COCCN1CCC(CNC(=O)Cc2cccc3ccccc23)CC1	561
COC(=O)c1cc(S(=O)(=O)N2CCCC2C(=O)Nc2ccc(C)cc2)cn1C (stereo not given)	869
Cn1c(N2CCCC(C(=O)NCc3cccc(F)c3)C2)cc(=O)n(C)c1=O (stereo not given)	676
